# Where “and” joins values, the source holds several entries; their conditions need not be identical. Identical values can stand only once.
# How the values were obtained:
# Assay type in all cases: binding
# SARS-CoV-2 Mpro R4A = SARS-CoV-2 Mpro R4A (Severe acute respiratory syndrome coronavirus 2, UniProt P0DTD1, R3267A)
# SARS-CoV-2 PLpro R166A = SARS-CoV-2 PLpro R166A (Severe acute respiratory syndrome coronavirus 2, UniProt P0DTD1, R1729A)
# SARS-CoV-2 Mpro E288A = SARS-CoV-2 Mpro E288A (Severe acute respiratory syndrome coronavirus 2, UniProt P0DTD1, E3551A)
# SARS-CoV-2 PLpro D164A = SARS-CoV-2 PLpro D164A (Severe acute respiratory syndrome coronavirus 2, UniProt P0DTD1, D1727A)
# SARS-CoV-2 Mpro F291A = SARS-CoV-2 Mpro F291A (Severe acute respiratory syndrome coronavirus 2, UniProt P0DTD1, F3554A)
# SARS-CoV-2 PLpro T257A = SARS-CoV-2 PLpro T257A (Severe acute respiratory syndrome coronavirus 2, UniProt P0DTD1, T1820A)
# SARS-CoV-2 PLpro Y273A = SARS-CoV-2 PLpro Y273A (Severe acute respiratory syndrome coronavirus 2, UniProt P0DTD1, Y1836A)
# SARS-CoV-2 PLpro V303A = SARS-CoV-2 PLpro V303A (Severe acute respiratory syndrome coronavirus 2, UniProt P0DTD1, V1866A)
# SARS-CoV-2 PLpro E252A = SARS-CoV-2 PLpro E252A (Severe acute respiratory syndrome coronavirus 2, UniProt P0DTD1, E1815A)
# SARS-CoV-2 PLpro F258A = SARS-CoV-2 PLpro F258A (Severe acute respiratory syndrome coronavirus 2, UniProt P0DTD1, F1821A)
# SARS-CoV-2 Mpro K5A = SARS-CoV-2 Mpro K5A (Severe acute respiratory syndrome coronavirus 2, UniProt P0DTD1, K3268A)
# SARS-CoV-2 PLpro K254A = SARS-CoV-2 PLpro K254A (Severe acute respiratory syndrome coronavirus 2, UniProt P0DTD1, K1817A)
# SARS-CoV-2 PLpro Y264A = SARS-CoV-2 PLpro Y264A (Severe acute respiratory syndrome coronavirus 2, UniProt P0DTD1, Y1827A)
# SARS-CoV-2 PLpro L253A = SARS-CoV-2 PLpro L253A (Severe acute respiratory syndrome coronavirus 2, UniProt P0DTD1, L1816A)
# SARS-CoV-2 Mpro N142A = SARS-CoV-2 Mpro N142A (Severe acute respiratory syndrome coronavirus 2, UniProt P0DTD1, N3405A)
# SARS-CoV-2 PLpro Y268A = SARS-CoV-2 PLpro Y268A (Severe acute respiratory syndrome coronavirus 2, UniProt P0DTD1, Y1831A)
# SARS-CoV-2 Mpro F3A = SARS-CoV-2 Mpro F3A (Severe acute respiratory syndrome coronavirus 2, UniProt P0DTD1, F3266A)
# SARS-CoV-2 PLpro Y251A = SARS-CoV-2 PLpro Y251A (Severe acute respiratory syndrome coronavirus 2, UniProt P0DTD1, Y1814A)
# SARS-CoV-2 Mpro Y126A = SARS-CoV-2 Mpro Y126A (Severe acute respiratory syndrome coronavirus 2, UniProt P0DTD1, Y3389A)
smiles,measurement,setting,value
"Cc1cc(O)c(O)c(Oc2cc(C)cc(O)c2Oc2cc(C)cc(O)c2O)c1 [Sydowiol B, sydowiol B]",Tm value,SARS-CoV-2 Mpro R4A,54.54 ± 0.06 (0.84) ℃ and 54.25 ± 0.27 (0.55) ℃ and 54.16 ± 0.03 (0.46) ℃
same,△Tm,SARS-CoV-2 Mpro R4A,54.54 ± 0.06 (0.84) ℃ and 54.25 ± 0.27 (0.55) ℃ and 54.16 ± 0.03 (0.46) ℃
same,Tm value,SARS-CoV-2 PLpro R166A,50.86 ± 0.55 (3.18) ℃
same,△Tm,SARS-CoV-2 PLpro R166A,50.86 ± 0.55 (3.18) ℃
same,Tm value,SARS-CoV-2 Mpro E288A,54.03 ± 0.10 (1.14) ℃ and 53.21 ± 0.11 (0.32) ℃
same,△Tm,SARS-CoV-2 Mpro E288A,54.03 ± 0.10 (1.14) ℃ and 53.21 ± 0.11 (0.32) ℃
same,Tm value,SARS-CoV-2 PLpro D164A,44.58 ± 0.62 (2.03) ℃ and 45.84 ± 0.11 (3.29) ℃ and 46.83 ± 0.21 (4.28) ℃
same,△Tm,SARS-CoV-2 PLpro D164A,44.58 ± 0.62 (2.03) ℃ and 45.84 ± 0.11 (3.29) ℃ and 46.83 ± 0.21 (4.28) ℃
same,Tm value,SARS-CoV-2 Mpro F291A,61.29 ± 0.01 (-0.08) ℃ and 61.37 ± 0.01 (0.00) ℃ and 61.44 ± 0.01 (0.07) ℃
same,△Tm,SARS-CoV-2 Mpro F291A,61.29 ± 0.01 (-0.08) ℃ and 61.37 ± 0.01 (0.00) ℃ and 61.44 ± 0.01 (0.07) ℃
same,Tm value,SARS-CoV-2 PLpro T257A,47.76 ± 0.27 (4.16) ℃
same,△Tm,SARS-CoV-2 PLpro T257A,47.76 ± 0.27 (4.16) ℃
same,Tm value,SARS-CoV-2 PLpro Y273A,51.09 ± 0.23 (-0.85) ℃ and 50.59 ± 0.10 (-1.35) ℃ and 51.21 ± 0.00 (-0.73) ℃
same,△Tm,SARS-CoV-2 PLpro Y273A,51.09 ± 0.23 (-0.85) ℃ and 50.59 ± 0.10 (-1.35) ℃ and 51.21 ± 0.00 (-0.73) ℃
same,Tm value,SARS-CoV-2 PLpro V303A,52.24 ± 0.13 (5.12) ℃
same,△Tm,SARS-CoV-2 PLpro V303A,52.24 ± 0.13 (5.12) ℃
same,Tm value,SARS-CoV-2 PLpro E252A,44.10 ± 0.20 (0.75) ℃ and 45.88 ± 0.48 (2.53) ℃ and 47.86 ± 0.13 (4.51) ℃
same,△Tm,SARS-CoV-2 PLpro E252A,44.10 ± 0.20 (0.75) ℃ and 45.88 ± 0.48 (2.53) ℃ and 47.86 ± 0.13 (4.51) ℃
same,Tm value,SARS-CoV-2 PLpro F258A,47.68 ± 0.06 °C
same,Tm value,SARS-CoV-2 Mpro K5A,47.98 ± 0.07 (0.63) ℃
same,△Tm,SARS-CoV-2 Mpro K5A,47.98 ± 0.07 (0.63) ℃
same,Tm value,SARS-CoV-2 PLpro K254A,46.61 ± 0.16 (3.31) ℃ and 46.23 ± 0.29 (2.93) ℃
same,△Tm,SARS-CoV-2 PLpro K254A,46.61 ± 0.16 (3.31) ℃ and 46.23 ± 0.29 (2.93) ℃
same,Tm value,SARS-CoV-2 PLpro Y264A,46.21 ± 0.86 (0.01) ℃ and 45.93 ± 0.03 (-0.27) ℃ and 46.48 ± 0.43 (0.28) ℃
same,△Tm,SARS-CoV-2 PLpro Y264A,46.21 ± 0.86 (0.01) ℃ and 45.93 ± 0.03 (-0.27) ℃ and 46.48 ± 0.43 (0.28) ℃
same,Tm value,SARS-CoV-2 PLpro L253A,50.09 ± 0.49 °C
same,Tm value,SARS-CoV-2 Mpro N142A,58.18 ± 0.03 (5.56) ℃ and 57.22 ± 0.07 (4.60) ℃ and 56.43 ± 0.24 (3.81) ℃
same,△Tm,SARS-CoV-2 Mpro N142A,58.18 ± 0.03 (5.56) ℃ and 57.22 ± 0.07 (4.60) ℃ and 56.43 ± 0.24 (3.81) ℃
same,Tm value,SARS-CoV-2 PLpro Y268A,50.46 ± 0.65 (3.82) ℃
same,△Tm,SARS-CoV-2 PLpro Y268A,50.46 ± 0.65 (3.82) ℃
same,Tm value,SARS-CoV-2 Mpro F3A,53.05 ± 0.12 (1.05) ℃ and 52.84 ± 0.19 (0.84) ℃ and 53.05 ± 0.03 (1.05) ℃
same,△Tm,SARS-CoV-2 Mpro F3A,53.05 ± 0.12 (1.05) ℃ and 52.84 ± 0.19 (0.84) ℃ and 53.05 ± 0.03 (1.05) ℃
same,Tm value,SARS-CoV-2 PLpro Y251A,47.78 ± 0.39 (2.41) ℃ and 46.46 ± 0.07 (1.09) ℃
same,△Tm,SARS-CoV-2 PLpro Y251A,47.78 ± 0.39 (2.41) ℃ and 46.46 ± 0.07 (1.09) ℃
same,Tm value,SARS-CoV-2 Mpro Y126A,47.88 ± 0.22 (1.58) ℃
same,△Tm,SARS-CoV-2 Mpro Y126A,47.88 ± 0.22 (1.58) ℃

# From publication PMC11699025 (Natural Products and Bioprospecting, 2025)
